Among the data in ChEMBL document CHEMBL4229367, “Identification of multi-target inhibitors of leukotriene and prostaglandin E2 biosynthesis by structural tuning of the FLAP inhibitor BRP-7” (Eur J Med Chem, 2018) are IC50, inhibition and Activity values, retold here.

Test [1] addresses T1, Arachidonate 5-lipoxygenase-activating protein (Homo sapiens, UniProt P20292).
T1 sequence (P20292 whole entry): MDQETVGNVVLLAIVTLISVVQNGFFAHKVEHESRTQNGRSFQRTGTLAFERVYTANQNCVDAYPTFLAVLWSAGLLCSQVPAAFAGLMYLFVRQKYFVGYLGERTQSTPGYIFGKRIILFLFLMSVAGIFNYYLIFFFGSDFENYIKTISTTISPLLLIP
Briefly: Inhibition of FLAP in A23187-stimulated human neutrophils assessed as reduction in 5-LO product formation preincubated for 15 mins followed by A23187 and arachidonic acid addition and measured after 10 mins by UV based RP-HPLC analysis.

The target in test [2] is T2, Prostaglandin E synthase (Homo sapiens) (UniProt O14684).
T2 sequence (whole entry): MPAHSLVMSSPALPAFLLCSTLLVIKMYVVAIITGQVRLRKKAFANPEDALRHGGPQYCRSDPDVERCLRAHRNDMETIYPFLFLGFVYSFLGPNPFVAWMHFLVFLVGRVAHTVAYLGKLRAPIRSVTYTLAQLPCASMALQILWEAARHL
Briefly: Inhibition of mPGES1 in IL-1beta-stimulated human A549 cell microsomal fractions assessed as reduction in PGE2 production at 3 uM preincubated for 15 mins followed by PGH2 substrate addition and measured after 1 min by RP-HPLC analysis relative to control.

In test [3] the target is T3, Arachidonate 5-lipoxygenase-activating protein (Homo sapiens) (UniProt P20292).
T3 sequence (whole entry): T1 sequence (P20292 whole entry)
Description: Inhibition of FLAP in A23187-stimulated human neutrophils assessed as reduction in 5-LO product formation at 1 uM preincubated for 15 mins followed by A23187 and arachidonic acid addition and measured after 10 mins by UV based RP-HPLC analysis.

For test [4], the target named is T3, Arachidonate 5-lipoxygenase-activating protein (Homo sapiens). Briefly: Inhibition of FLAP in A23187-stimulated human neutrophils assessed as remaining enzyme activity by measuring 5-LO product formation at 0.1 uM preincubated for 15 mins followed by A23187 and arachidonic acid addition and measured after 10 mins by UV based RP-HPLC analysis (reference value: 100%).

Test [5] shares this target. Briefly: Inhibition of FLAP in A23187-stimulated human neutrophils assessed as remaining enzyme activity by measuring 5-LO product formation at 1 uM preincubated for 15 mins followed by A23187 and arachidonic acid addition and measured after 10 mins by UV based RP-HPLC analysis (reference value: 100%).
For test [6], the target named is T4, Polyunsaturated fatty acid 5-lipoxygenase (Homo sapiens) (UniProt P09917).
T4 sequence (whole entry): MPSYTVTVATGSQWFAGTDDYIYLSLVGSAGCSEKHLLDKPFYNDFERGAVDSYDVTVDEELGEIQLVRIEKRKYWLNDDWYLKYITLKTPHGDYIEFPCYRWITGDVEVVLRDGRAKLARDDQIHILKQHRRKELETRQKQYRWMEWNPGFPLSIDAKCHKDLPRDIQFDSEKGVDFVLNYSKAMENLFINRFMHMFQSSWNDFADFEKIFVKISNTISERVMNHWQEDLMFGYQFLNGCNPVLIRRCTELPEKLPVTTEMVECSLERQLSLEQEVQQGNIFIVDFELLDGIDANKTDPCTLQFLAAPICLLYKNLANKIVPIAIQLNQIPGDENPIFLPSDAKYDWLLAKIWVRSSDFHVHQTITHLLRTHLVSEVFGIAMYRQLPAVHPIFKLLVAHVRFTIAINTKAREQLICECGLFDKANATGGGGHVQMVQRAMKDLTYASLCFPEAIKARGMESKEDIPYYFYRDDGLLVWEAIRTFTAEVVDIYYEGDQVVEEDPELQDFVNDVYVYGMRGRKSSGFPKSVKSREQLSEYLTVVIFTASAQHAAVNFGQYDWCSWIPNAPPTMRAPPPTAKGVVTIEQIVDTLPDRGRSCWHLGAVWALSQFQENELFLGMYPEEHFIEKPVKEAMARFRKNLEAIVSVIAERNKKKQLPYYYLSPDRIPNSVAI
Conditions: 0.3 uM.
Description: Inhibition of recombinant human 5-LO expressed in Escherichia coli BL21 at 0.3 uM incubated for 15 mins prior to prewarming for 30 secs followed by CaCl2+ and arachidonic acid addition and measured after 10 mins by RP-HPLC analysis

In test [7] the target is T5, Leukotriene C4 synthase (Homo sapiens, UniProt Q16873).
T5 sequence (Q16873 whole entry): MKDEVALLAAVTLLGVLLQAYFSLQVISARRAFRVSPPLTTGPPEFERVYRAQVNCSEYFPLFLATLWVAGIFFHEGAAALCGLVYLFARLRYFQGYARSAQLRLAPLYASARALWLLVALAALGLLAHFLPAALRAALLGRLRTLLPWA
Description: Inhibition of human LTC4 synthase expressed in HEK293 cell microsomes preincubated for 10 mins followed by LTA4-methyl ester addition and measured after 10 mins by UPLC-MS/MS analysis.

In test [8] the target is T6, Prostaglandin E synthase (Homo sapiens, UniProt O14684).
T6 sequence (O14684 whole entry): T2 sequence (whole entry)
Briefly: (§1) Inhibition of mPGES1 in IL-1beta-stimulated human A549 cell microsomal fractions assessed as reduction in PGE2 production preincubated for 15 mins followed by PGH2 substrate addition and measured after 1 min by RP-HPLC analysis relative to control.

The target in test [9] is T2, Prostaglandin E synthase (Homo sapiens). The description is as §1.
For test [10], the target named is T7, Polyunsaturated fatty acid 5-lipoxygenase (Homo sapiens, UniProt P09917).
T7 sequence (P09917 whole entry): T4 sequence (whole entry)
Briefly: Inhibition of recombinant human 5-LO expressed in Escherichia coli BL21 incubated for 15 mins prior to prewarming for 30 secs followed by CaCl2+ and arachidonic acid addition and measured after 10 mins by RP-HPLC analysis.

Test [11] has as its target T4, Polyunsaturated fatty acid 5-lipoxygenase (Homo sapiens). Briefly: Inhibition of recombinant human 5-LO expressed in Escherichia coli BL21 at 10 uM incubated for 15 mins prior to prewarming for 30 secs followed by CaCl2+ and arachidonic acid addition and measured after 10 mins by RP-HPLC analysis.
The target of test [12] is T7, Polyunsaturated fatty acid 5-lipoxygenase. Description: Inhibition of 5-LO in A23187-stimulated human neutrophils assessed as reduction in 5-LO product formation preincubated for 15 mins followed by A23187 and 10 uM arachidonic acid addition and measured after 10 mins by UV based RP-HPLC analysis.
Test [13] concerns the target T5, Leukotriene C4 synthase. Description: Inhibition of LTC4 synthase in LPS/fMLP-stimulated human monocytes assessed as decrease in cys-LT formation pre-incubated with LPS for 30 mins and later stimulated with fMLP for 10 mins by ELISA. The format is cell-based. A general note: In an ELISA, binding on a coated surface is turned into a signal by an enzyme label.
Test [14] concerns the target T1, Arachidonate 5-lipoxygenase-activating protein. Briefly: Inhibition of FLAP in A23187-stimulated human monocytes assessed as reduction in 5-LO product formation preincubated for 15 mins followed by A23187 and arachidonic acid addition and measured after 10 mins by UV based RP-HPLC analysis. The format is cell-based.

Some results are limits rather than exact numbers.

Take `CC(C)Cc1ccc(C(C)c2nc3c(CC(=O)O)cccc3n2Cc2ccccc2Cl)cc1` (stereo unspecified): the 50% inhibitory concentration (IC50) in test [1] is above 1000 nM. Also, the inhibition in test [2] is above 50%; in test [3], 50%. In addition, the results for the Activity in test [4] and in test [5] were 99.3% and 49.3%, respectively.
In the case of `CC(=O)N(O)C/C=C/c1cccc(Oc2ccccc2)c1`, the inhibition in test [6] is above 70%.
`CC(C)Cc1ccc(C(C)c2nc3cc(-c4ccc(C(=O)O)cc4)ccc3n2Cc2ccccc2Cl)cc1` (stereo unspecified): the IC50 in [7] worked out at 15900 nM; in [1] it was 40 nM; in test [8], 2100 nM; in test [10], 3200 nM. Moreover, the figures for the inhibition entry in test [9] and in test [2] were “Dose-dependent effect” and above 50%, respectively. The values for the Activity in test [4] and in test [5] were 3.73% and 0%, respectively.
With `CC(C)c1ccc2c(c1)c(SC(C)(C)C)c(CC(C)(C)C(=O)O)n2Cc1ccc(Cl)cc1`, the 50% inhibitory concentration (IC50) in test [10] came out at 3000 nM.
For the molecule `CC(C)Cc1ccc(C(C)c2nc3cc(CCC(=O)O)ccc3n2Cc2ccccc2Cl)cc1` (stereo unspecified), the inhibition in [11] is 26%; in test [2], above 50%. In addition, the concentration for half-maximal inhibition (IC50) in [12] was 60 nM; in [13], 30 nM; in [1], 50 nM; in [14], 70 nM. In addition, the figures for the Activity in test [4] and in test [5] were 32.1% and 0%, respectively.
For `CC(C)Cc1ccc(C(C)c2nc3cc(-c4n[nH]c(=S)o4)ccc3n2Cc2ccccc2Cl)cc1` (stereo unspecified), the half-maximal inhibitory concentration (IC50) was 6190 nM in test [7], 50 nM in test [1], 420 nM in test [8] and 600 nM in [10]. The inhibition entry in test [9] was “Dose-dependent effect”; in test [2], above 50%. For the same molecule, the Activity is 41.4% in test [4] and 0% in test [5].

By IC50 is commonly meant the concentration needed to halve the response being measured. A word on the inhibition: it is the drop in the measured response relative to a control, in per cent.
